Measured values taken from PubChem BioAssay (NCI).
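Interpolation was linear, between the two tested concentrations surrounding the appropriate level; five concentrations were tested over 48 hours in 96-well plates. The concentration for 50% growth inhibition is given as GI50. TGI: concentration producing complete growth inhibition.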 Where a SMILES comes first, the peptide text is derived from it. [ ]: non-standard residue; d: D form. The star is where a group is joined. ξ: configuration not given here. ξD = NC(CC(=O)O)C(=O)O; Ac3c = NC1(C(=O)O)CC1; Boc = CC(C)(C)OC(=O)*; OtBu = CC(C)(C)O*

Columns and labels:
Assay in all cases: growth of human tumour cells (NCI), 48 h
HCC-2998 colon = test system: HCC-2998 colon
NCI-H460 lung = test system: NCI-H460 lung
OVCAR-3 ovarian = test system: OVCAR-3 ovarian
NCI-H522 lung = test system: NCI-H522 lung
RXF 393 renal = test system: RXF 393 renal
SF-539 CNS = test system: SF-539 CNS
MOLT-4 leukemia = test system: MOLT-4 leukemia
SW-620 colon = test system: SW-620 colon
SK-MEL-2 melanoma = test system: SK-MEL-2 melanoma
TK-10 renal = test system: TK-10 renal

Row | Compound | TGI (HCC-2998 colon) [µM] | TGI (NCI-H460 lung) [µM] | TGI (OVCAR-3 ovarian) [µM] | TGI (NCI-H522 lung) [µM] | TGI (RXF 393 renal) [µM] | TGI (SF-539 CNS) [µM] | TGI (MOLT-4 leukemia) [µM] | TGI (SW-620 colon) [µM] | TGI (SK-MEL-2 melanoma) [µM] | TGI (TK-10 renal) [µM] | GI50 (HCC-2998 colon) [µM] | GI50 (NCI-H460 lung) [µM] | GI50 (OVCAR-3 ovarian) [µM] | GI50 (NCI-H522 lung) [µM] | GI50 (RXF 393 renal) [µM] | GI50 (SF-539 CNS) [µM] | GI50 (MOLT-4 leukemia) [µM] | GI50 (SW-620 colon) [µM] | GI50 (SK-MEL-2 melanoma) [µM] | GI50 (TK-10 renal) [µM]
1 | CC(C)C(C/C=C1/CC(CO)(COC(=O)C2CCCCC2)OC1=O)C(C)C (stereo not given) | 59.8 | 89.6 | 34.5 | 34.1 | 40.9 | 29.1 | 94.8 | 42.5 | > 100 | 37.4 |  |  |  |  |  |  |  |  |  | 
2 | N=C(N)SCCCN | 20.3 | 15.8 | 30.5 | 25.5 | 26 | 30.9 | 3.16 | > 100 | 32.2 | 20.7 |  |  |  |  |  |  |  |  |  | 
3 | O=S1(=O)C(c2ccccc2)=C(O)c2ccccc21 | > 100 | > 100 | > 100 | > 100 | > 100 | > 100 | > 100 | > 100 | > 100 | > 100 |  |  |  |  |  |  |  |  |  | 
4 | [N-]=[N+]=NC[C@H]1OCO[C@H](CN=[N+]=[N-])[C@H]2OCCOCCOc3ccccc3OCCOCCO[C@@H]21 | > 100 | > 100 | > 100 | > 100 | > 100 | > 100 | > 100 | > 100 | > 100 | > 100 |  |  |  |  |  |  |  |  |  | 
5 | Cc1cc(O)ccc1C1(c2ccc(F)cc2)OC(=O)c2ccccc21 (stereo not given) | 15.3 | 29 | 0.882 | 15.6 | 3.33 | 9.29 | > 100 | 25.5 | 17.4 | 15.5 |  |  |  |  |  |  |  |  |  | 
6 | CCOC(=O)/C(C#N)=C(/NNc1ccccc1)c1ccncc1C(=O)O | > 95.6 | > 100 | > 100 | > 100 | > 100 | > 88.3 | > 100 | > 100 | > 100 | > 100 |  |  |  |  |  |  |  |  |  | 
7 | COC(=O)C1(NC(=O)C(CC(=O)OC(C)(C)C)NC(=O)OC(C)(C)C)CC1 (stereo not given) (Boc-[ξD](OtBu)-[Ac3c]-OMe) | > 100 | > 100 | > 100 | > 100 | > 100 | > 100 | > 100 | > 100 | > 100 | > 100 |  |  |  |  |  |  |  |  |  | 
8 | S=C(N/N=C\c1ccccn1)N(Cc1ccccn1)Cc1ccccn1 | > 43.1 | > 44 | > 48.7 | 33.1 | 32.2 | > 100 | 19.4 | > 51.3 | 37.9 | 17.6 |  |  |  |  |  |  |  |  |  | 
9 | C=C(Br)CNCC(=C)Br | > 100 | > 100 | > 100 | > 100 | > 100 | > 100 | > 100 | > 100 | > 100 | > 100 |  |  |  |  |  |  |  |  |  | 
10 | O=C1NC2CCCCC2N=C1/C(C(=O)c1ccccc1)=C(\O)c1ccccc1 (stereo not given) | > 100 | > 100 | > 100 | 61.9 | > 100 | > 100 | 79.3 | > 100 | > 100 | > 100 |  |  |  |  |  |  |  |  |  | 
11 | CCOC(=O)c1c(N2CCOCC2)[nH]c(=O)c(C(c2cccs2)c2c(O)c(C(=O)OCC)c(N3CCOCC3)[nH]c2=O)c1O | > 100 | > 100 | > 100 | > 100 | > 100 | > 100 | > 100 | > 100 | > 100 | > 100 |  |  |  |  |  |  |  |  |  | 
12 | CC1(C)CCCCCCCCCC(C)(CCCCCCCCCCCCO)C1=O (stereo not given) | 13.7 | 33.4 | 29.4 | 30.3 | 33.3 | 32.5 | 76.7 | 32.5 | 32.7 | 31.6 |  |  |  |  |  |  |  |  |  | 
13 | COc1cc(OC)cc(-c2n/c(=C\c3c(O)[nH]c4ccc(Cl)cc34)cc3c2=Nc2ccccc2-3)c1 | 19.5 | 10.5 | 5.22 | 10.5 | 21.4 | 45.8 | 4.74 | 8 | 43.4 | 8.96 | 4.22 | 3.26 | 2.46 | 3.09 | 6.05 | 20.4 | 2.18 | 2.66 | 20.8 | 3.79
